Earlier results, collected in patent US20230102999A1, “DEUTERATED NICLOSAMIDE” (First Wave Bio, Inc., priority 2020, published 2023).
Counter-ions that a name gives are not always drawn.

Key:
[1] = at 20° C.

O=C(Nc1ccc([N+](=O)[O-])cc1Cl)c1cc(Cl)ccc1O [Niclosamide, 5-chloro-N-(2-chloro-4-nitrophenyl)-2-hydroxybenzamide]
water solubility ([1]; water): 5 to 8 µg/mL
solubility in acetone (acetone): soluble
solubility in ether, ethanol and chloroform (ether, ethanol and chloroform): sparingly soluble

O=C(Nc1ccc([N+](=O)[O-])cc1Cl)c1cc(Cl)ccc1O [ethanolamine salt, 5-chloro-salicyl-(2-chloro-4-nitro) anilide 2-aminoethanol salt]
dissolves in distilled water ([1]; distilled water): 180 to 280 mg/L
